One test relates to anti-DNP IgG. As to the kind of experiment: Modified octet solution labelling kinetics assay with PSMA coated probes. The class given is binding, rabbit. As to the method: To determine the kinetics of CIR 3 covalent labelling of anti-DNP IgG, a modified octet protocol was developed to accommodate the weaker binding affinity of glutamate urea on CIR 3 for biotinylated PSMA, which was loaded onto streptavidin coated octet probes in these experiments. First, streptavidin probes from ForteBio were placed in wells each containing 250 μl solutions composed of 100 nM biotinylated PSMA in kinetics Buffer (1×) spiked with 1% (v/v) DMSO for 20 minutes in an Octet Red96 instrument. The RPM was 1000, the temperature was held at 30° C., and the acquisition rate was 5 Hz. Following washing and baseline steps described above, the probes were then placed in a solution containing 200 nM CIR 3+100 nM anti-DNP IgG (Ab) that already had been allowed to react for varying amounts of time away from the octet instrument to form CIR 3-Ab, followed by quenching with 1 mM DNP-Glycine competitor to disrupt non covalent complex [CIR 3:Ab]. The association of CIR 3-Ab (already formed in solution) with PSMA coated probe was monitored, and the initial rates and final signal plateau measured as a function of the concentration of CIR 3-Ab formed with incubation time away from the octet instrument in solution. […]

A further test deals with PSMA+HEK cells. As to the kind of experiment: Luminescence ADCC reporter (CD16α activation) assay with mmAb. The class given is cell-based, human. As to conditions: antibody 10^−7-10^−9 M. As to the method: Covalent vs. non-covalent antibody recruitment were compared in functional immune assays. Activation of NK cell CD16α immune receptors was assessed via luminescence based ADCC assays. ADCC was quantified using the ADCC Reportor Bioassay kit (Promega G7010). All ADCC induced luminescence was measured on a SpectraMax i3 plate reader (Molecular Devices). The human IgG isotype control used was purchased from Jackson ImmunoResearch (009-000-003). The human IgG1 monoclonal anti-DNP antibody (mAb) was purchased from Acrobiosystems (DNP-M2). Human IgG from serum was purchased from Innovative Research ([…]1000MG). Anti-DNP depleted serum was made from human IgG from serum (Innovative Research). For PSMA competition controls, 2-PMPA was purchased from Sigma (SML1612). Hek-293T (PSMA+/−) cell lines were generously given by Dr. Cyril Barinka (Institute of Biotechnology CAS, Czech Republic). Ultra low IgG FBS was purchased from Fischer Scientific (A3381901). RPMI-1640 was purchased as a powder from Fischer Scientific (31800089) and resuspended. DMEM was purchased as a powder from Fischer Scientific (12800082) and resuspended. Pen/Strep was purchased from Fischer Scientific (15140-122). FBS was purchased from Fischer Scientific (12484-028). Zeocin was purchased from Fischer Scientific (R25001). HEK-PSMA cells were cultured in DMEM media with 2 mM L-glut, 1% Pen/Strep, 10% FBS, 50 ug/mL Zeocin. HEK cells were cultured in DMEM media with 2 mM L-glut, 1% Pen/Strep, 10% FBS.
Preparation of antibody-CIR/ARM stocks were mixed overnight prior to addition to the ADCC plate. In the case of mmAb and mAb, incubation was carried out at 600 nM antibody and 1.2 μM CIR or ARM. In the case of IgG from serum, incubation was completed at 230 μM antibody and 8.7 μM CIR or ARM. In all cases, DMSO was kept close to 1%. After the overnight incubation, a dilution series was completed on the antibody-CIR/ARM stocks in RPMI (1% DMSO). […] 75 μL of Bio-Glo Luciferase Assay Reagent was added to each well, and luminescence was quantified using the SpectraMax i3 plate reader. […]

`O=C(O)CC[C@H](NC(=O)N[C@@H](CCCCNC(=O)NCCOCCOCCOCCOCCOCCOCCOCCOC(=O)n1cnc(CCNC(=O)CNc2ccc([N+](=O)[O-])cc2[N+](=O)[O-])c1)C(=O)O)C(=O)O` [CIR 3]: in the test on anti-DNP IgG (200 nM CIR 3 + 100 nM anti-DNP IgG), the “pseudo intramolecular complex labelling rate constant k=kobs/0.5” value was found to be 0.51 h⁻¹. Moreover, the “rate constant k2” value in the test on anti-DNP IgG (solution labelling, PSMA coated probes) is 0.00014 s⁻¹. For the same compound, in the test with PSMA+HEK cells, the “CD16α based target immune recognition” value is given as “robust target immune recognition”.

For the origin of these results see patent US11827624B2, “Covalent immune recruiter compounds for immune cell recognition and associated uses” (McMaster University, priority 2020, dated 2023).
